Experimental findings from patent publication US10723705B2, “Heterocyclic compounds and uses thereof” (Incyte Corporation, priority 2015, dated 2020) are described below.

One assay deals with Human recombinant Histone Deacetylase 8 (HDAC8) (Homo sapiens (Human), UniProt Q9BY41). Put plainly: HDAC8 Enzymatic Assay (HDAC-Glo I/II luminescence). It is filed as biochemical. The settings on record: HDAC8; read-out: IC50. The method, then: HDAC-Glo™ I/II Assay Kit was purchased from Promega Corporation (Madison, Wis.), including the following components: HDAC-Glo I/II Buffer (25 mM Tris buffer, pH 8.0, supplemented with 137 mM: NaCl, 2.7 mM KCl, 1% v/v Triton X-100 and 1 mM: MgCl2), luminogenic substrates Boc-GAK(Ac)-aminoluciferin (HDAC-Glo I/II substrate), proprietary developer reagent (containing trypsin). Human recombinant Histone Deacetylase 8 (HDAC8) was purchased from Enzo Life Sciences (Plymouth Meeting, Pa.).
Sequence of Human recombinant Histone Deacetylase 8 (HDAC8) (Q9BY41 whole entry): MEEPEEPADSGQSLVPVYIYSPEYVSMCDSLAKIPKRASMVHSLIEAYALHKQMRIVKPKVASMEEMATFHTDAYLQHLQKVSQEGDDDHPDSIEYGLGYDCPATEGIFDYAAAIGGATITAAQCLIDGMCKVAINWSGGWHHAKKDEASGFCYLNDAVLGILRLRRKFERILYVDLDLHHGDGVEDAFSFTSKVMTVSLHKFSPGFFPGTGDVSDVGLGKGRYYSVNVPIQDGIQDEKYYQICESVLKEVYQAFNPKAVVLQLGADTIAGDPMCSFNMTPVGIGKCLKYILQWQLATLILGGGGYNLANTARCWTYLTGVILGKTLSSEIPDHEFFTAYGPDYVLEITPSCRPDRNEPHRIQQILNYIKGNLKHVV
The HDAC8 reaction was performed at room temperature in white 384-well polystyrene, flat-bottom microtiter plate (Greiner Bio-one, Monroe, N.C.) in a final volume of 20 μL. Test compounds were first diluted serially in DMSO and 100 nL were transferred to the plate wells by Echo 550 (Labcyte, Sunnyvale, Calif.) before the addition of other reaction components. The final concentration of DMSO in the assay was 0.5%. The HDAC-Glo I/II assay reagent was prepared by rehydration of lyophilized HDAC-Glo I/II substrate in 10 mL. HDAC-Glo I/II assay buffer followed with the addition of 10 μL of developer reagent. 10 uL of 3 nM HDAC8 in the HDAC-Glo I/II assay buffer were first dispensed into the microliter plate containing the compounds and incubated at room temperature for 30 min. The reactions were initiated with the addition of 10 uL HDAC-Glo I/II assay reagent with Multidrop (Thermo, Waltham, Mass.). The final concentration of HDAC8 and HDAC-Glo I/II substrate in the reaction were 1.5 nM and 50 μM, respectively. The assay plate was mixed for 1 min by orbital shaking (500 rpm) and centrifuged for 1 min at 1500 rpm. After 15 min at room temperature, luminescence signals were measured on TopCount (Perkin Elmer). Wells with no compound served as the positive controls and wells containing no HDAC8 were used as negative controls. IC50 determination was performed by fitting the curve of percentage control activity versus the log of the compound concentration using the GraphPad Prism 6.0 software.
Regarding `O=C(NO)C(Cc1ccccc1)c1cnc2cc(Cl)ccn12` (stereo not drawn) [Compound I-0093, 2-(7-Chloroimidazo[1,2-a]pyridin-3-yl)-N-hydroxy-3-phenylpropanamide], the half-maximal inhibitory concentration (IC50) (usually the concentration at which inhibition is half-maximal) turned out to be 22 nM.

The same assay, now with this note: class symbols, Table 14; read-out: HDAC8 IC50.
As for `O=C(NO)C(Cc1ccccc1)n1ncc2nc(-c3ccncc3)ccc21` (stereo not drawn) [Compound I-0073, N-hydroxy-3-phenyl-2-(5-(pyridin-4-yl)-1H-pyrazolo[4,3-b]pyridin-1-yl)propanamide], the IC50 lay within 200 to 500 nM.

`O=C(NO)C(Cc1ccccc1)n1ncc2nc(-c3cncnc3)ccc21` (stereo not drawn) [Compound I-0074, N-hydroxy-3-phenyl-2-(5-(pyrimidin-5-yl)-1H-pyrazolo[4,3-b]pyridin-1-yl)propanamide]: the IC50 is 50 to 200 nM.

In the case of `Cc1ccc2c(cnn2C(Cc2ccccc2)C(=O)NO)n1` (stereo not drawn) [Compound I-0075, N-hydroxy-2-(5-methyl-1H-pyrazolo[4,3-b]pyridin-1-yl)-3-phenylpropanamide], the IC50 was in the range of 200 to 500 nM.

Regarding `O=C(NO)C(Cc1ccccc1)n1ncc2nc(Cl)ccc21` (stereo not drawn) [Compound I-0076, 2-(5-chloro-1H-pyrazolo[4,3-b]pyridin-1-yl)-N-hydroxy-3-phenylpropanamide], the IC50 lay within 50 to 200 nM.

Take `O=C(NO)C(Cc1ccccc1)n1cc2nc(Cl)ccc2n1` (stereo not drawn) [Compound I-0077, 2-(5-chloro-2H-pyrazolo[4,3-b]pyridin-2-yl)-N-hydroxy-3-phenylpropanamide]: the half-inhibitory concentration (IC50) is over 500 nM.

With `Cc1cccc2cn(C(Cc3ccccc3)C(=O)NO)nc12` (stereo not drawn) [Compound I-0078, N-hydroxy-2-(7-methyl-2H-indazol-2-yl)-3-phenylpropanamide], the 50% inhibitory concentration (IC50) was over 500 nM.

Turning to `O=C(NO)C(Cc1ccccc1)n1ncc2c(-c3ccccc3)cccc21` (stereo not drawn) [Compound I-0079, N-hydroxy-3-phenyl-2-(4-phenyl-1H-indazol-1-yl)propanamide], the IC50 is over 500 nM.

As to `NC(=O)c1ccc(-c2cccc3c2cnn3C(Cc2ccccc2)C(=O)NO)cc1` (stereo not drawn) [Compound I-0080, 4-(1-(1-(hydroxyamino)-1-oxo-3-phenylpropan-2-yl)-1H-indazol-4-yl)benzamide], the IC50 is over 500 nM.

In the case of `O=C(NO)C(Cc1ccccc1)n1ncc2c(-c3cncnc3)cccc21` (stereo not drawn) [Compound I-0081, N-hydroxy-3-phenyl-2-(4-(pyrimidin-5-yl)-1H-indazol-1-yl)propanamide], the IC50 was 50 to 200 nM.

On to `O=C(NO)C(Cc1ccccc1)n1cc2cccc(C#CC3CC3)c2n1` (stereo not drawn) [Compound I-0082, 2-(7-(Cyclopropylethynyl)-2H-indazol-2-yl)-N-hydroxy-3-phenylpropanamide], for which the IC50 fell in the range of 200 to 500 nM.

Turning to `Cn1nccc1-c1cccc2c1cnn2C(Cc1ccccc1)C(=O)NO` (stereo not drawn) [Compound I-0083, N-hydroxy-2-(4-(1-methyl-1H-pyrazol-5-yl)-1H-indazol-1-yl)-3-phenylpropanamide], the concentration for half-maximal inhibition (IC50) was in the range of 50 to 200 nM.

For the compound `Cc1cccc2c1cnn2C(Cc1ccccc1)C(=O)NO` (stereo not drawn) [Compound I-0084, N-hydroxy-2-(4-methyl-1H-indazol-1-yl)-3-phenylpropanamide], the IC50 is over 500 nM.

As for `CN1CC=C(c2cccc3c2cnn3C(Cc2ccccc2)C(=O)NO)CC1` (stereo not drawn) [Compound I-0085, N-hydroxy-2-(4-(1-methyl-1,2,3,6-tetrahydropyridin-4-yl)-1H-indazol-1-yl)-3-phenylpropanamide], the IC50 is 200 to 500 nM.

With `O=C(NO)C(Cc1ccccc1)n1ncc2cc(-c3ccccc3)ncc21` (stereo not drawn) [Compound I-0086, N-hydroxy-3-phenyl-2-(5-phenyl-1H-pyrazolo[3,4-c]pyridin-1-yl)propanamide], the half-inhibitory concentration (IC50) was over 500 nM.

Consider `O=C(NO)C(Cc1ccccc1)n1ncc2cc(-c3c(F)cccc3F)ncc21` (stereo not drawn) [Compound I-0087, 2-(5-(2,6-difluorophenyl)-1H-pyrazolo[3,4-c]pyridin-1-yl)-N-hydroxy-3-phenylpropanamide], for which the half-maximal inhibitory concentration (IC50) was over 500 nM.

As for `N#Cc1ccc(-c2cc3cnn(C(Cc4ccccc4)C(=O)NO)c3cn2)cc1` (stereo not drawn) [Compound I-0088, 2-(5-(4-cyanophenyl)-1H-pyrazolo[3,4-c]pyridin-1-yl)-N-hydroxy-3-phenylpropanamide], the IC50 was over 500 nM.

For the compound `NC(=O)c1ccc(-c2cc3cnn(C(Cc4ccccc4)C(=O)NO)c3cn2)cc1` (stereo not drawn) [Compound I-0089, 4-(1-(1-(hydroxyamino)-1-oxo-3-phenylpropan-2-yl)-1H-pyrazolo[3,4-c]pyridin-5-yl)benzamide], the IC50 lay in the range of 200 to 500 nM.

On to `Cn1nccc1-c1cc2cnn(C(Cc3ccccc3)C(=O)NO)c2cn1` (stereo not drawn) [Compound I-0090, N-hydroxy-2-(5-(1-methyl-1H-pyrazol-5-yl)-1H-pyrazolo[3,4-c]pyridin-1-yl)-3-phenylpropanamide], for which the half-inhibitory concentration (IC50) was 200 to 500 nM.

In the case of `Cn1cc(-c2cc3cnn(C(Cc4ccccc4)C(=O)NO)c3cn2)cn1` (stereo not drawn) [Compound I-0091, N-hydroxy-2-(5-(1-methyl-1H-pyrazol-4-yl)-1H-pyrazolo[3,4-c]pyridin-1-yl)-3-phenylpropanamide], the IC50 was over 500 nM.

Turning to `O=C(NO)C(Cc1ccccc1)n1ncc2cc(-c3cncnc3)ncc21` (stereo not drawn) [Compound I-0092, N-hydroxy-3-phenyl-2-(5-(pyrimidin-5-yl)-1H-pyrazolo[3,4-c]pyridin-1-yl)propanamide], the IC50 lay within 200 to 500 nM.

As to `O=C(NO)C(Cc1ccccc1)c1cnc2cc(Cl)ccn12` (stereo not drawn) [Compound I-0093, 2-(7-Chloroimidazo[1,2-a]pyridin-3-yl)-N-hydroxy-3-phenylpropanamide], the IC50 is at most 50 nM.

Regarding `COc1ncc(-c2cc3cnn(C(Cc4ccccc4)C(=O)NO)c3cn2)cn1` (stereo not drawn) [Compound I-0094, N-hydroxy-2-(5-(2-methoxypyrimidin-5-yl)-1H-pyrazolo[3,4-c]pyridin-1-yl)-3-phenylpropanamide], the concentration for half-maximal inhibition (IC50) lay in the range of 200 to 500 nM.

For `O=C(NO)C(Cc1ccccc1)n1ncc2cc(-c3cccnc3)ncc21` (stereo not drawn) [Compound I-0095, N-hydroxy-3-phenyl-2-(5-(pyridin-3-yl)-1H-pyrazolo[3,4-c]pyridin-1-yl)propanamide], the IC50 was 200 to 500 nM.

`COc1ccc(-c2cc3cnn(C(Cc4ccccc4)C(=O)NO)c3cn2)cn1` (stereo not drawn) [Compound I-0096, N-hydroxy-2-(5-(6-methoxypyridin-3-yl)-1H-pyrazolo[3,4-c]pyridin-1-yl)-3-phenylpropanamide]: the IC50 was over 500 nM.

Consider `O=C(NO)C(Cc1ccccc1)n1ncc2cc(-c3ccncc3)ncc21` (stereo not drawn) [Compound I-0097, N-hydroxy-3-phenyl-2-(5-(pyridin-4-yl)-1H-pyrazolo[3,4-c]pyridin-1-yl)propanamide], for which the IC50 is over 500 nM.

Take `O=C(NO)C(Cc1ccccc1)n1ncc2cc(C3CC3)ncc21` (stereo not drawn) [Compound I-0098, 2-(5-cyclopropyl-1H-pyrazolo[3,4-c]pyridin-1-yl)-N-hydroxy-3-phenylpropanamide]: the IC50 is over 500 nM.

With `O=C(NO)C(Cc1ccccc1)n1ncc2cc(Br)ncc21` (stereo not drawn) [Compound I-0099, 2-(5-bromo-1H-pyrazolo[3,4-c]pyridin-1-yl)-N-hydroxy-3-phenylpropanamide], the half-maximal inhibitory concentration (IC50) is over 500 nM.

In the case of `O=C(NO)C(Cc1ccccc1)n1cc2cc(Br)ncc2n1` (stereo not drawn) [Compound I-0100, 2-(5-bromo-2H-pyrazolo[3,4-c]pyridine-2-yl)-N-hydroxy-3-phenylpropanamide], the IC50 is over 500 nM.

With `CN1CC=C(c2cccc3cn(C(Cc4ccccc4)C(=O)NO)nc23)CC1` (stereo not drawn) [Compound I-0101, N-hydroxy-2-(7-(1-methyl-1,2,3,6-tetrahydropyridin-4-yl)-2H-indazol-2-yl)-3-phenylpropanamide], the half-maximal inhibitory concentration (IC50) is over 500 nM.

In the case of `O=C(NO)C(Cc1ccccc1)n1ncc2ccccc21` (stereo not drawn) [Compound I-0102, N-hydroxy-2-(1H-indazol-1-yl)-3-phenylpropanamide], the IC50 is over 500 nM.

As to `Cc1nn(C)c(C)c1-c1ccc2c(cnn2C(Cc2ccccc2)C(=O)NO)c1` (stereo not drawn) [Compound I-0103, N-hydroxy-3-phenyl-2-(5-(1,3,5-trimethyl-1H-pyrazol-4-yl)-1H-indazol-1-yl)propanamide], the half-inhibitory concentration (IC50) is 200 to 500 nM.

Take `O=C(NO)C(Cc1ccccc1)n1ncc2cc(-c3cccnc3)ccc21` (stereo not drawn) [Compound I-0104, N-hydroxy-3-phenyl-2-(5-(pyridin-3-yl)-1H-indazol-1-yl)propanamide]: the half-maximal inhibitory concentration (IC50) fell in the range of 50 to 200 nM.

Take `Cn1cc(-c2ccc3c(cnn3C(Cc3ccccc3)C(=O)NO)c2)cn1` (stereo not drawn) [Compound I-0105, N-hydroxy-2-(5-(1-methyl-1H-pyrazol-4-yl)-1H-indazol-1-yl)-3-phenylpropanamide]: the IC50 lay within 50 to 200 nM.

As for `CN(C)C(=O)c1ccc(-c2ccc3c(cnn3C(Cc3ccccc3)C(=O)NO)c2)cc1` (stereo not drawn) [Compound I-0106, 4-(1-(1-(hydroxyamino)-1-oxo-3-phenylpropan-2-yl)-1H-indazol-5-yl)-N,N-dimethylbenzamide], the half-inhibitory concentration (IC50) fell in the range of 200 to 500 nM.

Turning to `N/C(=N\O)c1cccc(-c2ccc3c(cnn3C(Cc3ccccc3)C(=O)NO)c2)c1` (stereo not drawn) [Compound I-0107, (Z)-N-hydroxy-2-(5-(3-(N′-hydroxy-carbamimid-oyl)phenyl)-1H-indazol-1-yl)-3-phenylpropanamide], the 50% inhibitory concentration (IC50) lay within 50 to 200 nM.
